Source: patent US20050163737A1, “Deodorant cosmetic composition comprising a combination of zinc pidolate and an antiperspirant aluminum salt” (priority 2003, published 2005)

Key:
[1] = Deodorant efficacy test: odor intensity of incubated underarm sweat, expert panel; parameters: species or system human; conditions: 24 hours at 37° C, vs control sweat
Description: Protocol of the Deodorant Efficacy Test
Collections of underarm sweat were taken in a sauna from 6 volunteers; the samples of individual sweat, were stored in ice for a few hours, and were at this point virtually odorless. They were then mixed together and divided into 1 ml aliquots. The active agents were added to these aliquots, which were then incubated in an oven at 37° C. After incubation for 24 hours, a panel of experts evaluated the intensity of the odor in comparison with a control sample: 1 ml of sweat incubated without agent.
The results were expressed as a percentage of variation of the intensity of the odor in comparison with the control sweat sample (mean of the percentages of variation at T24h).

[2] = cited from earlier work

For `Oc1cc(Cl)ccc1Oc1ccc(Cl)cc1Cl` [(B), 2,4,4′-trichloro-2′-hydroxydiphenyl ether], the “% of Reduction in the Intensity of the Odor” value (shortened to “% of Reduction”) ([1]; 0.4 mg AM/ml of sweat (total)) is given as −49% and the Solubility in water [2] is given as “insoluble”.

In the case of aluminum chlorohydrate [ACH], the “% of Reduction” value ([1]; 0.1 mg AM/ml of sweat) is reported as −37% and the “% of Reduction” value ([1]; 0.2 mg AM/ml of sweat (total)) is reported as −47%.

With zinc pidolate [(A)] the “% of Reduction” value ([1]; 0.1 mg AM/ml of sweat) was −47% and the “% of Reduction” value ([1]; 0.2 mg AM/ml of sweat (total)) was −47%.

In the case of zinc ricinoleate [(C)], the “% of Reduction” value ([1]; 0.3 mg AM/ml of sweat) is reported as −4%.
